Data published in article PMC8126888 (RSC Medicinal Chemistry, 2020).
Where two headings read alike, the source gives them in different places.

Assays:
in vitro [1] = details: human
[2] = test system: Leishmania infantum MHOM/MA(BE)/67/ITMAP263 intracellular amastigotes; test: microbe, parasite or virus in culture; details: Macrophage, in Mus musculus
[3] = test system: primary peritoneal mouse macrophages (PMM); test: cells; details: Macrophage, read-out: PMM IC50
in vitro [4] = details: human, HFF-1 cells
in vitro [5] = details: human, HepG2 cells
[6] = test system: Trypanosoma cruzi, Tulahuen CL2, beta-galactosidase strain; test: microbe, parasite or virus in culture; details: MRC5, read-out: T. cruzi Tulahuen C4 (LacZ) IC50
physchem = details: HPLC, Ascentis Express RP Amide column, pH 7.4, eLogD
in vitro [7] = details: PAMPA
in vitro [8] = details: mouse, microsomes, pH 7.4, MLM CLint, mouse liver microsomes
in vitro [9] = details: human, microsomes, pH 7.4, HLM CLint, human liver microsomes
in vitro [10] = details: PAMPA; remark: listed apart in the source
in vitro [11] = details: Swiss, mouse
[12] = test system: primary peritoneal mouse macrophages (PMM); details: PMM IC50 / L. infantum IC50
[13] = read-out: L. Inf. pIC50, from L. infantum intracellular amastigote IC50 (converted)
[14] = read-out: L. infantum MHOM/MA(BE)/67/ITMAP263 intracellular amastigotes IC50, intracellular amastigotes
[15] = read-out: L. infantum MHOM/MA(BE)/67/ITMAP263 intracellular amastigotes IC50

| SMILES | CC50 at 3 days (in vitro [1]) [µM] | IC50 [2, 13] [µM] | IC50 [2, 14] [µM] | IC50 [3] [µM] | CC50 (in vitro [4]) [µM] | CC50 (in vitro [5]) [µM] | IC50 [6] [µM] | chromatographic logD (physchem; experimental) | Papp (in vitro [7]) [×10⁻⁶ cm/s] | microsomal CLint at 0.5 μM (in vitro [8]) [µL/min/mg] | microsomal CLint at 0.5 μM (in vitro [9]) [µL/min/mg] | IC50 [2, 15] [µM] | chromatographic logD (physchem) | Papp (in vitro [10]) [×10⁻⁶ cm/s] | IC50 (in vitro [11]) [µM] | SI (vs PMM) [12] |
| --- | --- | --- | --- | --- | --- | --- | --- | --- | --- | --- | --- | --- | --- | --- | --- | --- |
| COc1ccc(C#N)cc1S(=O)(=O)N(Cc1ccc(F)cc1)Cc1oc(C)nc1C [DNDI0003370421] | 49.1 | 7.94 | 7.89 | > 64 | 1.91 | > 64 | 26.1 | 3.7 | 14.8 | 721 | 392 |  |  |  |  |  |
| Nc1ncccc1S(=O)(=O)N(Cc1ccc(F)cc1)Cc1ccc(F)cc1 [DNDI0003371163] | > 64 | > 64 | > 64 | > 64 | 52.2 | > 64 | 42 | 4.2 | 2.18 | 447 | 164 |  |  |  |  |  |
| [2H]C([2H])([2H])Oc1ncccc1S(=O)(=O)N(Cc1ccc(F)cc1)Cc1ccc(F)cc1 [DNDI0003371166] | > 64 | 32.4 | 32.1 | > 64 | 41.8 | 18.9 | 20.8 | 3.5 | 4.95 | 123 | 14 |  |  |  |  |  |
| Cn1cccc(S(=O)(=O)N(Cc2ccc(F)cc2)Cc2ccc(F)cc2)c1=O [DNDI0003371168] | > 64 | 20.4 | 20.5 | > 64 | 62.5 | > 64 | 24.5 | 3.8 | 18.3 | 629 | 222 |  |  |  |  |  |
| O=c1[nH]cccc1S(=O)(=O)N(Cc1ccc(F)cc1)Cc1ccc(F)cc1 [DNDI0003371165] | > 64 | > 64 | > 64 | > 64 | 23.2 | > 64 | 42.3 | 3.8 | 23.6 | 218 | 44 |  |  |  |  |  |
| CCC(Cc1ccccc1)[S+]([O-])c1nc(C)cc(C)c1C#N (stereo not drawn) [DNDI0003297458] | > 64 | 47.9 |  |  |  |  | > 64 |  |  | 1560 | 1230 | 47.6 | 3.2 | 13.4 | > 64 | 1 |
| CCN(Cc1ccccc1)S(=O)(=O)c1cc(F)ccc1N1CCCC1 [DNDI0003364614] | > 64 | 12.9 |  |  |  |  | 7.33 |  |  | 3000 | 1470 | 12.9 | 4.9 | 0.34 | 50.8 | 4 |
| CCN(Cc1ccccc1)S(=O)(=O)c1ccccc1C#N [DNDI0002574585] | > 64 | 25.7 |  |  |  |  | 29.3 |  |  | 1060 | 306 | 25.6 | 3.5 | 16.6 | > 64 | 2 |
| CCN(Cc1ccccc1)S(=O)(=O)c1ccccc1 [DNDI0003363563] | > 64 | > 64 |  |  |  |  | 32.1 |  |  | 1180 | 418 | > 64 | 3.8 | 7.54 | > 64 | 1 |
| CNc1ncccc1S(=O)(=O)N(Cc1ccc(F)cc1)Cc1ccc(F)cc1 [DNDI0003371162] | > 64 | 3.55 | 3.54 | > 64 | > 64 | 16.9 | 14.5 | 4.5 | 1.61 | 984 | 401 |  |  |  |  |  |
| COc1ccc(OC)c(S(=O)(=O)N(Cc2ccc(F)cc2)c2ccc(F)cc2)c1 [DNDI0003371170] | > 64 | 11.2 | 11.3 | > 64 | 30.7 | 23.3 | 15.1 |  | 1.83 | 703 | 417 |  |  |  |  |  |
| CCC(Cc1ccccc1)Sc1nc(C)cc(C)c1C#N (stereo not drawn) [DNDI0003297457] | > 64 | 2.63 |  |  |  |  | 6.9 |  |  | 1900 | 2010 | 2.64 | 5.4 | 0.19 | 40.3 | 15 |
| COc1ncccc1S(=O)(=O)N(Cc1ccc(F)cc1)Cc1ccc(F)cc1 [DNDI0003371169] | > 64 | 12.9 | 13 | > 64 | > 64 | > 64 | 44.2 | 4.4 | 2.56 | 1170 | 334 |  |  |  |  |  |
| COc1ccc(C#N)cc1S(=O)(=O)N(Cc1ccc(F)cc1)Cc1ccc(C#N)cc1 [DNDI0003371171] | > 64 | 33.1 | 33.2 | > 64 | > 64 | > 64 | 30.4 |  |  |  |  |  |  |  |  |  |
| COCCN(Cc1ccccc1)S(=O)(=O)c1ccccc1 [DNDI0003363821] | > 64 | 40.7 |  |  |  |  | 39.3 |  |  | 2990 | 239 | 40.5 | 3.5 | 25.3 | > 64 | 2 |
| CCN(Cc1ccccc1)S(=O)(=O)c1ccc(OC)cc1 [DNDI0003297130] | > 64 | 11 |  |  |  |  | 18.5 |  |  | 3010 | 676 | 11 | 3.9 | 7.68 | > 64 | 6 |
| COc1ccc(OC)c(S(=O)(=O)N(Cc2ccc(F)cc2)Cc2oc(C)nc2C)c1 [DNDI0003370420] | > 64 | 2.34 | 2.34 | > 64 | 1.24 | > 64 | 24.9 | 3.8 | 46.4 | 2280 | 376 |  |  |  |  |  |
| COc1ccc(OC)c(S(=O)(=O)N2CCC(c3ccccc3)CC2)c1 [DNDI0003370422] | > 64 | > 64 | > 64 | > 64 | 4.56 | 63.9 | 16.9 | 4.2 | 6.45 | 664 | 1610 |  |  |  |  |  |
| COc1ccc(OC)c(S(=O)(=O)N(Cc2ccc(F)cc2)Cc2ncccn2)c1 [DNDI0003370419] | > 64 | 13.8 | 13.8 | > 64 | 19.1 | > 64 | 38.8 | 3.4 | 25.1 | 844 | 115 |  |  |  |  |  |
| COc1ccc(S(C)(=O)=O)cc1S(=O)(=O)N(Cc1ccc(F)cc1)Cc1ccc(F)cc1 [DNDI0003371164] | > 64 | 1.29 | 1.28 | > 64 | 24.3 | 41.7 | 22 |  | 2.57 |  | 296 |  |  |  |  |  |
| CCN(Cc1ccccc1)S(=O)(=O)c1cc(Cl)ccc1OC [DNDI0003364251] | 53.2 | 5.5 |  |  |  |  | 9.1 |  |  | 1260 | 304 | 5.52 | 4.3 | 3.74 | > 64 | 12 |
| O=S(=O)(c1cccnc1OC(F)F)N(Cc1ccc(F)cc1)Cc1ccc(F)cc1 [DNDI0003371167] | > 64 | 9.33 | 9.4 | > 64 | > 64 | > 64 | 31.2 | 4.8 | 0.98 | 3070 | 751 |  |  |  |  |  |
| CCN(Cc1ccccc1)S(=O)(=O)c1ccccc1OC(F)(F)F [DNDI0003364252] | > 64 | 8.51 |  |  |  |  | 22.4 |  |  | 2340 | 1180 | 8.47 | 4.5 | 1.18 | > 64 | 8 |
